Laboratory results from US20210290624A1, “METHODS OF TREATING CANCERS CHARACTERIZED BY A HIGH EXPRESSION LEVEL OF SPINDLE AND KINETOCHORE ASSOCIATED COMPLEX SUBUNIT 3 (SKA3) GENE” (UNIVERSITY HEALTH NETWORK, priority 2018, published 2021).

Test system: breast cancer cell lines
Assay: sulforhodamine B (SRB) drug sensitivity assay in breast cancer cell line panel
Format: cell-based
Conditions: panel of 52 breast cancer cell lines, 5 days of treatment, FIG. 1
Source text: A breast cancer cell line panel, previously described (Marcotte et al., Cell, 164(1-2), 2016293-309), was assembled for in vitro drug sensitivity profiling, and mated with available gene expression data. The RNA-seq reads were aligned to the Ensembl Genome Reference Consortium release GRCh38 using Kallisto pipeline (Bray et al., Nature Biotechnology, 201634(5), 525-527). Expression values were computed as log2(TPM+0.001), where TPM represents the number of transcripts per million mapped reads units which control for sequence length and sequencing depth. The status of SKA3 expression (high vs low expression) can be determined from a reference population such as the breast cancer TCGA cohort (see FIG. 6).
Response of breast cancer cell lines to compound CFI-402257 (a TTK inhibitor, see the structure below) was evaluated using sulforhodamine B (SRB) assays. The compound was synthesized as previously described (See Liu et al., ACS Medicinal Chemistry Letters, 20167(7), 671-675).
Cells were seeded in 96-well plates and treated with serial drug dilutions. After 5 days of treatment, cells were fixed, stained with SRB, solubilized, and absorbance quantified on a spectrophotometer. For all drug response assays, cell viabilities are reported as the proportion of growth in drug relative to DMSO treated conditions. […]

Cc1cc(-c2cnn3c(NC[C@H]4C[C@@](C)(O)C4)cc(Oc4cccnc4)nc23)ccc1C(=O)NC1CC1 [CFI-402257]
in vitro sensitivity (area above the drug dose-response curve, AAC): Differential in vitro sensitivity
